Data taken from PubChem BioAssay AID1259407 (Chemical Carcinogenesis Research Information System (CCRIS), 2018).
Active and inactive are the calls of the source. The rule behind the calls is not given here.

Test system: CCRIS mutagenicity, Ames/micronucleus/aberration tests
Assay: CCRIS mutagenicity studies

Measured: mutagenic call

C=CC(=O)O
active: Test System: MOUSE LYMPHOMA, Strain/Indicator: L5178Y (TK+/TK-), Metabolic Activation: RAT, LIVER, S-9, AROCLOR 1254, Method: SUSPENSION /PLATE active; positive | Test System: MOUSE LYMPHOMA, Strain/Indicator: L5178Y (TK+/TK-), Metabolic Activation: RAT, LIVER, S-9, AROCLOR 1254, Method: SUSPENSION/PLATE active; positive. reevaluation of results: positive
inactive: Test System: AMES SALMONELLA TYPHIMURIUM, Strain/Indicator: TA1535, Metabolic Activation: RAT LIVER S-9, PHENOBARBITAL AND BETA-NAPHTHOFLAVONE, Method: PREINCUBATION inactive; negative | Test System: AMES SALMONELLA TYPHIMURIUM, Strain/Indicator: TA1535, Metabolic Activation: RAT, LIVER, S-9, AROCLOR 1254 (10%), Method: PREINCUBATION inactive; negative | Test System: AMES SALMONELLA TYPHIMURIUM, Strain/Indicator: TA1535, Metabolic Activation: RAT, LIVER, S-9, AROCLOR 1254, Method: STANDARD PLATE inactive; negative | Test System: AMES SALMONELLA TYPHIMURIUM, Strain/Indicator: TA1535, Metabolic Activation: RAT, LIVER, S-9, AROCLOR, Method: STANDARD PLATE inactive; negative | Test System: AMES SALMONELLA TYPHIMURIUM, Strain/Indicator: TA1537, Metabolic Activation: HAMSTER, LIVER, S-9, AROCLOR 1254 (10%), Method: PREINCUBATION inactive; negative | Test System: AMES SALMONELLA TYPHIMURIUM, Strain/Indicator: TA1537, Metabolic Activation: HAMSTER, LIVER, S-9, AROCLOR 1254, Method: STANDARD PLATE inactive; negative | Test System: AMES SALMONELLA TYPHIMURIUM, Strain/Indicator: TA1537, Metabolic Activation: NONE, Method: PREINCUBATION inactive; negative | Test System: AMES SALMONELLA TYPHIMURIUM, Strain/Indicator: TA1537, Metabolic Activation: NONE, Method: STANDARD PLATE inactive; negative | Test System: AMES SALMONELLA TYPHIMURIUM, Strain/Indicator: TA1537, Metabolic Activation: RAT LIVER S-9, PHENOBARBITAL AND BETA-NAPHTHOFLAVONE, Method: PREINCUBATION inactive; negative | Test System: AMES SALMONELLA TYPHIMURIUM, Strain/Indicator: TA1537, Metabolic Activation: RAT, LIVER, S-9, AROCLOR 1254 (10%), Method: PREINCUBATION inactive; negative | Test System: AMES SALMONELLA TYPHIMURIUM, Strain/Indicator: TA1537, Metabolic Activation: RAT, LIVER, S-9, AROCLOR 1254, Method: STANDARD PLATE inactive; negative | Test System: AMES SALMONELLA TYPHIMURIUM, Strain/Indicator: TA1537, Metabolic Activation: RAT, LIVER, S-9, AROCLOR, Method: STANDARD PLATE inactive; negative | Test System: AMES SALMONELLA TYPHIMURIUM, Strain/Indicator: TA1538, Metabolic Activation: HAMSTER, LIVER, S-9, AROCLOR 1254, Method: STANDARD PLATE inactive; negative | Test System: AMES SALMONELLA TYPHIMURIUM, Strain/Indicator: TA1538, Metabolic Activation: NONE, Method: STANDARD PLATE inactive; negative | Test System: AMES SALMONELLA TYPHIMURIUM, Strain/Indicator: TA1538, Metabolic Activation: RAT, LIVER, S-9, AROCLOR 1254, Method: STANDARD PLATE inactive; negative | Test System: AMES SALMONELLA TYPHIMURIUM, Strain/Indicator: TA1538, Metabolic Activation: RAT, LIVER, S-9, AROCLOR, Method: STANDARD PLATE inactive; negative | Test System: CHINESE HAMSTER OVARY, Strain/Indicator: CHO-K1-BH4 (HGPRT), Metabolic Activation: NONE inactive; negative | Test System: CHINESE HAMSTER OVARY, Strain/Indicator: CHO-K1-BH4 (HGPRT), Metabolic Activation: RAT, LIVER, S-9, AROCLOR 1254 inactive; negative | Test System: E.COLI, Strain/Indicator: WP2UVRA/PKM101, Metabolic Activation: NONE, Method: PREINCUBATION inactive; negative | Test System: E.COLI, Strain/Indicator: WP2UVRA/PKM101, Metabolic Activation: RAT LIVER S-9, PHENOBARBITAL AND BETA-NAPHTHOFLAVONE, Method: PREINCUBATION inactive; negative | Test System: E.COLI, Strain/Indicator: WP2UVRA, Metabolic Activation: NONE, Method: PREINCUBATION inactive; negative | Test System: E.COLI, Strain/Indicator: WP2UVRA, Metabolic Activation: RAT LIVER S-9, PHENOBARBITAL AND BETA-NAPHTHOFLAVONE, Method: PREINCUBATION inactive; negative | Test System: MOUSE LYMPHOMA, Strain/Indicator: L5178Y (TK+/TK-), Metabolic Activation: RAT, LIVER, S-9, AROCLOR, Method: SUSPENSION/PLATE inactive; negative | Test System: UDS RAT HEPATOCYTES, Strain/Indicator: THY INCORP, Metabolic Activation: NONE, Method: AUTORADIOGRAPHY inactive; negative | Test System: UDS RODENT CELLS, Strain/Indicator: SHE CELL-MEDIATED, Metabolic Activation: NONE, Method: LIQUID SCINTILLATION COUNTING (THYMIDINE INCORPORATION) inactive; negative | Test System: UDS RODENT HEPATOCYTES, Strain/Indicator: THY INCORP (NON-S-PHASE), Metabolic Activation: NONE, Method: AUTORADIOGRAPHY inactive; negative
